Experimental data reported in patent publication US11963962B2, “Platelet count-agnostic methods of treating myelofibrosis” (Sierra Oncology, Inc., priority 2018, dated 2024).
Like-named read-outs stand apart in the source and are kept apart here. Marks after values point to notes of the source that are not given here.

Assays:
myelofibrosis [1] = experiment: SIMPLIFY-1 Phase 3 trial: total symptom score (TSS) response at week 24; type: in vivo, human; conditions: for TSS response rate: SIMPLIFY 1, week 24
Method: (§1) In the SIMPLIFY-1 trial (NCT01969838), the efficacy and safety of MMB versus ruxolitinib (RUX) was studied in patients with myelofibrosis who were naïve to treatment with a JAK inhibitor and a platelet count of ≥50×10^9/L. Patients (N=432) with high risk or intermediate-2 risk or symptomatic intermediate-1 risk myelofibrosis received 24 weeks of treatment with 200 mg MMB once daily or 20 mg RUX twice a day (or per label), after which all patients could receive open-label momelotinib. […] The primary endpoint was a reduction by at least 35% in the spleen volume at 24 weeks compared with baseline.
(§2) FIG. 8A: SIMPLIFY-1 study of MMB in a first line population previously untreated with JAKi. For SIMPLIFY-1, the goal was non-inferiority over ruxolitinib (RUX) (MMB: N=215 subjects, and RUX: N=217 subjects). FIG. 8B: SIMPLIFY-2 study of second line population of anemic or thrombocytopenic subjects previously treated with RUX (red blood cell (RBC) transfusions on RUX=64%. RUX dose adjustment for: thrombocytopenia=21%; anemia/hematoma=35%). For SIMPLIFY-2, the goal was superiority over best available treatment (BAT) (MMB: N=104 subjects, and BAT: N=52 subjects). In both SIMPLIFY-1 and SIMPLIFY: Primary endpoint: >=35% reduction in spleen volume at 24 weeks. Secondary endpoints: Total symptom score (TSS) response at 24 weeks. Effects on RBC transfusion requirements.
(§3) The SIMPLIFY 1 clinical trial data was reanalyzed for subgroups of subjects having particular baseline platelet counts in the MMB versus RUX arms of the study.
(§4) Patient data was analyzed according to the following baseline platelet count (PLT) subgroups and in particular according to the threshold PLT of 150×10^9/L: 1) PLT<50×10^9/L; 2) 50×10^9/L≤PLT<100×10^9/L; 3) 100×10^9/L≤PLT<150×10^9/L. The reanalyzed data is presented in Table 13 (SIMPLIFY 1). Selected data is also illustrated in the following figures.

myelofibrosis [2] = conditions: cited from earlier work
myelofibrosis [3] = experiment: SIMPLIFY-1 Phase 3 trial: safety (anemia, platelet counts, hemoglobin); type: in vivo, human
Method: as §1
The mean platelet count for RUX patients is demonstrably lower than the mean platelet count for MMB patients.
The MMB subjects were thus at lower risk of developing thrombocytopenia (e.g., Grade 3 or 4 thrombocytopenia), or of having to undergo undesirable dose reduction because they were able to largely maintain their platelet counts during therapy.

myelofibrosis [4] = experiment: SIMPLIFY-1 Phase 3 trial: transfusion independence and TD to TI conversion; type: in vivo, human; conditions: SIMPLIFY 1
Excerpt: The improved outcome from MMB therapy that results from practicing the subject methods can be manifested as an improvement in one or more clinical endpoints (e.g., as described herein), such as anemia response, in spleen response and/or symptom response. By “anemia response” is meant an increase in the patient's hemoglobin level or a patient who was transfusion dependent becoming transfusion independent. Desirably, a minimum increase in hemoglobin of 0.5 g/dL, such as 1.0 g/dL 1.5 g/dL or 2.0 g/dL lasting a minimum of 8 weeks is achieved, which is the level of improvement specified in the International Working Group (IWG) consensus criteria. However, smaller, but still medically significant, increases in hemoglobin are also considered to be within the term “anemia response”. “Transfusion independence” is an anemia endpoint and refers to a subject who required no RBC transfusions over a 12 week period and had no hemoglobin levels less than 8 g/dL to 8.5 g/dL over the 12 week period. In some embodiments, the 12 week period of transfusion independence is the terminal 12 weeks of a 24 week study period. By red blood cell (RBC) transfusion independence rate at week 24 of a study is meant the proportion of subjects who were transfusion independent at week 24, excluding cases associated with clinically overt bleeding.
as §1, §2, §3, §4

myelofibrosis [5] = experiment: SIMPLIFY-1 dynamic and time-to-event analyses of RBC transfusions; type: in vivo, human; conditions: SIMPLIFY-1, 24 week randomized treatment period
Excerpt: The SIMPLIFY-1 (S1) trial, a double-blind, active-controlled Phase 3 study in which 432 patients received randomized treatment with MMB or RUX for 24 weeks was previously reported (Mesa R A, Kiladjian J J, Catalano J V. et al. “Simplify-1: A phase III randomized trial of momelotinib versus ruxolitinib in j anus kinase inhibitor—naïve patients with myelofibrosis”, Journal of Clinical Oncology, 2017; 35:3844-50).
Since transfusion burden is of significant concern to clinicians and patients, to better understand the dynamics of RBC transfusions we further examined the S1 data through statistical models utilizing a variety of novel anemia benefit endpoints including time until transfusion and overall intensity of transfusions across time. The proportions of patients with 0 and 4 transfusions were calculated and time-to-event analyses examining time-to-first and time-to-fifth units transfused also conducted. Since transfusions typically comprise 2 units, the fifth unit transfused represents a de facto third transfusion event. The number of units transfused were also considered to be recurrent events and examined with and without patients' baseline characteristics as covariates. Finally, a mixture model, based on a zero-inflated negative binomial (ZINB) distribution fit to the transfusion data, was employed to compare between the treatment groups the proportions of subjects with zero transfusion burden and the mean transfusion rates.

myelofibrosis [6] = experiment: SIMPLIFY-1 Phase 3 trial: splenic response rate (SRR); type: in vivo, human; conditions: SIMPLIFY 1, week 24
Method: as §1, §2, §3, §4

[7] = ITT, platelets 50-100 (subgroup 2)
[8] = ITT, platelets 100-150 (subgroup 3)
[9] = baseline TSS ≥ 6, platelets 50-100 (subgroup 2)
[10] = baseline TSS ≥ 6, platelets 100-150 (subgroup 3)
[11] = baseline TSS ≥ 10, all patients
[12] = baseline TSS ≥ 10, platelets 50-100 (subgroup 2)
[13] = baseline TSS ≥ 10, platelets 100-150 (subgroup 3)

## N#CC[C@H](C1CCCC1)n1cc(-c2ncnc3[nH]ccc23)cn1 [RUX, ruxolitinib, reference compound]
Myelofibrosis [1]; ITT, all patients
  TSS response rate: 41%
Myelofibrosis [1]; [7]
  TSS response rate: 22%
Myelofibrosis [1]; [8]
  TSS response rate: 39%*
Myelofibrosis [1]; baseline TSS ≥ 6, all patients
  TSS response rate: 42%
Myelofibrosis [1]; [9]
  TSS response rate: 23%
Myelofibrosis [1]; [10]
  TSS response rate: 33%
Myelofibrosis [1]; [11]
  TSS response rate: 43%
Myelofibrosis [1]; [12]
  TSS response rate: 21%
Myelofibrosis [1]; [13]
  TSS response rate: 35%
Myelofibrosis [1]; SIMPLIFY-1, overall
  Total Symptom Score (TSS) response: 42.2%
Myelofibrosis [2]; after dose reduction or dose interruption
  median time to recovery of platelet counts above 50×10^9/L: 14 days
Myelofibrosis [2]; patients who developed Grade 3 or 4 thrombocytopenia
  median time to onset of thrombocytopenia: approximately 8 weeks
Myelofibrosis [2]; patients with a platelet count of 100×10^9 to 200×10^9/L before starting ruxolitinib
  frequency of Grade 3 or 4 thrombocytopenia: 17%
Myelofibrosis [2]; patients with an entry platelet count greater than 200×10^9/L
  frequency of Grade 3 or 4 thrombocytopenia: 7%
Myelofibrosis [3]; SIMPLIFY 1
  anemia rate: 38%
  ≥Grade 3 anemia rate: 23%
Myelofibrosis [3]; SIMPLIFY 1, 24 week double blind phase, FIGS. 31-33
  platelet counts during treatment: significant reductions in platelet counts from baseline
Myelofibrosis [4]
  patients with transfusion independence promoted and maintained (TI rate): 49%
Myelofibrosis [4]; ITT, all patients
  Week 24 TI rate: 49%
Myelofibrosis [4]; [7]
  Week 24 TI rate: 39%
Myelofibrosis [4]; [8]
  Week 24 TI rate: 45%*
Myelofibrosis [4]; baseline TSS ≥ 6, all patients
  Week 24 TI rate: 48%
Myelofibrosis [4]; [9]
  Week 24 TI rate: 36%
Myelofibrosis [4]; [10]
  Week 24 TI rate: 41%
Myelofibrosis [4]; [11]
  Week 24 TI rate: 51%
Myelofibrosis [4]; [12]
  Week 24 TI rate: 32%
Myelofibrosis [4]; [13]
  Week 24 TI rate: 45%*
Myelofibrosis [5]
  Kaplan-Meier estimate of the proportion of patients who did not require any units transfused: 46%
  proportion of patients requiring 4 or fewer units: 62%
Myelofibrosis [6]; ITT, all patients
  SRR: 29%
Myelofibrosis [6]; [7]
  SRR: 0%
Myelofibrosis [6]; [8]
  SRR: 6%
Myelofibrosis [6]; baseline TSS ≥ 6, all patients
  SRR: 29%
Myelofibrosis [6]; [9]
  SRR: 0%
Myelofibrosis [6]; [10]
  SRR: 7%
Myelofibrosis [6]; [11]
  SRR: 29%
Myelofibrosis [6]; [12]
  SRR: 0%
Myelofibrosis [6]; [13]
  SRR: 5%
